{"source": "paper PMC9611727", "about": "“Optimization of a Novel Mandelamide-Derived Pyrrolopyrimidine Series of PERK Inhibitors” (Pharmaceutics, 2022)", "test_in_all_cases": "scanMAX kinase panel", "type_in_all_cases": "binding", "key": {"BLK": {"target": "T1, BLK (Homo sapiens, UniProt P51451)", "T1 construct": "purchased DiscoverX scanMAX", "conditions": "read-out: % Control; for remaining binding at 1 µM: 1000 nM", "text": "(§1) Supplemental Table S2. scanMAXSM Kinome Assay Results. Complete tabulated data of all 468 kinases from the panel, including\n(§2) 403 wild-type and 65 mutant isoforms. […] Cmpd 11 and Cmpd 24"}, "CAMK4": {"target": "T2, CAMK4 (Homo sapiens, UniProt Q16566)", "T2 construct": "purchased DiscoverX scanMAX", "T2 sequence (Q16566 1-473)": "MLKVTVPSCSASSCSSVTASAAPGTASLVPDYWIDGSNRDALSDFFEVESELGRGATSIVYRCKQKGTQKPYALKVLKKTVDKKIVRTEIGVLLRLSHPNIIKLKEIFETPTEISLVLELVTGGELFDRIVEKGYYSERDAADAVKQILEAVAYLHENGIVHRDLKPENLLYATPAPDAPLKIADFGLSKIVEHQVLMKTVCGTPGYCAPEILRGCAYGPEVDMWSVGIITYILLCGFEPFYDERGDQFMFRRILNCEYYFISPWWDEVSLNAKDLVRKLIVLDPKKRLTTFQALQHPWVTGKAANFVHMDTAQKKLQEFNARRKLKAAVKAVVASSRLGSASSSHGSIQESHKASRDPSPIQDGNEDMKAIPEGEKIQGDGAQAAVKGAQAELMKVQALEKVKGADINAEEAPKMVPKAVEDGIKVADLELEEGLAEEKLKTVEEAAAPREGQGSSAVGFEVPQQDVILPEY", "conditions": "read-out: % Control; for remaining binding at 1 µM: 1000 nM", "text": "as §1, §2"}, "CDK11": {"target": "T3, CDK11 (Homo sapiens, UniProt Q9BWU1)", "T3 construct": "purchased DiscoverX scanMAX", "conditions": "read-out: % Control; for remaining binding at 1 µM: 1000 nM", "text": "as §1, §2"}, "CDK8": {"target": "T4, CDK8 (Homo sapiens, UniProt P49336)", "T4 construct": "purchased DiscoverX scanMAX", "conditions": "read-out: % Control; for remaining binding at 1 µM: 1000 nM", "text": "as §1, §2"}, "FLT3(ITD)": {"system": "FLT3(ITD)", "text": "as §1, §2"}, "FLT3(ITD,D835V)": {"system": "FLT3(ITD,D835V)", "text": "as §1, §2"}, "FLT3-autoinhibited": {"target": "T5, FLT3-autoinhibited (Homo sapiens, UniProt P36888)", "T5 construct": "purchased DiscoverX scanMAX", "T5 sequence (P36888 564-993 limits assumed)": "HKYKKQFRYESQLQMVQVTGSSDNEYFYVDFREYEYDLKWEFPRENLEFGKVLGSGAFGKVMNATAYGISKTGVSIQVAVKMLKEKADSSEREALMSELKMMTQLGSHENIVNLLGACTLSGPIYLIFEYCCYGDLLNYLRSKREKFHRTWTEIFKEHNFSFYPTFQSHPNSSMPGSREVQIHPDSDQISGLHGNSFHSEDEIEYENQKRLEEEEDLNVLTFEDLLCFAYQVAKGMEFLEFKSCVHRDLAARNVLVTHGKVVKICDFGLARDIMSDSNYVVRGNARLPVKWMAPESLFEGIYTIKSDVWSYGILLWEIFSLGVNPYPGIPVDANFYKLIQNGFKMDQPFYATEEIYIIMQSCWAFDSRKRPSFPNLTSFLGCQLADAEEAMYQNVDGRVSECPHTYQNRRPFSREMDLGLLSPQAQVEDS", "conditions": "read-out: % Control; for remaining binding at 1 µM: 1000 nM", "text": "as §1, §2"}, "GCN2(Kin.Dom.2,S808G)": {"target": "T6, GCN2(Kin.Dom.2,S808G) (Homo sapiens, UniProt Q9P2K8, S808G)", "T6 construct": "GCN2(Kin.Dom.2,S808G); purchased DiscoverX scanMAX", "T6 sequence (Q9P2K8 590-1001 S808G limits assumed)": "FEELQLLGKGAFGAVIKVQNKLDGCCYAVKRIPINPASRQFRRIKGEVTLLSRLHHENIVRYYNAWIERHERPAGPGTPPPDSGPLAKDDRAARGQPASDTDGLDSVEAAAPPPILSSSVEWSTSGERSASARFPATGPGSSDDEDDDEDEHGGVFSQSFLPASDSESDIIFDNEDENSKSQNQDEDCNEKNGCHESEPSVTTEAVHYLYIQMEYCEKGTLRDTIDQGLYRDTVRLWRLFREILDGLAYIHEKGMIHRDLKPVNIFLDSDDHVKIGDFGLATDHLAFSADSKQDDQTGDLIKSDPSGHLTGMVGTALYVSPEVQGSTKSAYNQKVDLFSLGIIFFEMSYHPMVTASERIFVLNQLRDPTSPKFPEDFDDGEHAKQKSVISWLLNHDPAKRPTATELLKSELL", "conditions": "read-out: % Control; for remaining binding at 1 µM: 1000 nM", "text": "as §1, §2"}, "MAP3K2": {"target": "T7, MAP3K2 (Homo sapiens, UniProt Q9Y2U5)", "T7 construct": "purchased DiscoverX scanMAX", "T7 sequence (Q9Y2U5 1-619)": "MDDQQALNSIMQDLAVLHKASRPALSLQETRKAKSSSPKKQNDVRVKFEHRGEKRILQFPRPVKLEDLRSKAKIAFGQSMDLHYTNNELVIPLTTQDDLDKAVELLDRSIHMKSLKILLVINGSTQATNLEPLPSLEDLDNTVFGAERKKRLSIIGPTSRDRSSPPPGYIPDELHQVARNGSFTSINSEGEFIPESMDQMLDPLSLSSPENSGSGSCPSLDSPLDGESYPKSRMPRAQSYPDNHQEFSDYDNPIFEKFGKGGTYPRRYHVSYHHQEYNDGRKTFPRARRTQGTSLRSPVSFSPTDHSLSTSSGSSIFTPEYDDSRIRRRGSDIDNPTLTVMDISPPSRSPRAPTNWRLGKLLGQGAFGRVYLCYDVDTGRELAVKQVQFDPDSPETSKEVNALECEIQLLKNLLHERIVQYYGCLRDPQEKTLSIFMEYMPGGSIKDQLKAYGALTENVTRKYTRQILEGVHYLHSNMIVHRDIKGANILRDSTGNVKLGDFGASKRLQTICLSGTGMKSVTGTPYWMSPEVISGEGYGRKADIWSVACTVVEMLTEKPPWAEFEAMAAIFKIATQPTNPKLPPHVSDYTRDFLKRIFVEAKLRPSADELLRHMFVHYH", "conditions": "read-out: % Control; for remaining binding at 1 µM: 1000 nM", "text": "as §1, §2"}, "MKNK2": {"target": "T8, MKNK2 (Homo sapiens, UniProt Q9HBH9)", "T8 construct": "purchased DiscoverX scanMAX", "conditions": "read-out: % Control; for remaining binding at 1 µM: 1000 nM", "text": "as §1, §2"}, "PDGFRB": {"target": "T9, PDGFRB (Homo sapiens, UniProt P09619)", "T9 construct": "purchased DiscoverX scanMAX", "T9 sequence (P09619 33-1106)": "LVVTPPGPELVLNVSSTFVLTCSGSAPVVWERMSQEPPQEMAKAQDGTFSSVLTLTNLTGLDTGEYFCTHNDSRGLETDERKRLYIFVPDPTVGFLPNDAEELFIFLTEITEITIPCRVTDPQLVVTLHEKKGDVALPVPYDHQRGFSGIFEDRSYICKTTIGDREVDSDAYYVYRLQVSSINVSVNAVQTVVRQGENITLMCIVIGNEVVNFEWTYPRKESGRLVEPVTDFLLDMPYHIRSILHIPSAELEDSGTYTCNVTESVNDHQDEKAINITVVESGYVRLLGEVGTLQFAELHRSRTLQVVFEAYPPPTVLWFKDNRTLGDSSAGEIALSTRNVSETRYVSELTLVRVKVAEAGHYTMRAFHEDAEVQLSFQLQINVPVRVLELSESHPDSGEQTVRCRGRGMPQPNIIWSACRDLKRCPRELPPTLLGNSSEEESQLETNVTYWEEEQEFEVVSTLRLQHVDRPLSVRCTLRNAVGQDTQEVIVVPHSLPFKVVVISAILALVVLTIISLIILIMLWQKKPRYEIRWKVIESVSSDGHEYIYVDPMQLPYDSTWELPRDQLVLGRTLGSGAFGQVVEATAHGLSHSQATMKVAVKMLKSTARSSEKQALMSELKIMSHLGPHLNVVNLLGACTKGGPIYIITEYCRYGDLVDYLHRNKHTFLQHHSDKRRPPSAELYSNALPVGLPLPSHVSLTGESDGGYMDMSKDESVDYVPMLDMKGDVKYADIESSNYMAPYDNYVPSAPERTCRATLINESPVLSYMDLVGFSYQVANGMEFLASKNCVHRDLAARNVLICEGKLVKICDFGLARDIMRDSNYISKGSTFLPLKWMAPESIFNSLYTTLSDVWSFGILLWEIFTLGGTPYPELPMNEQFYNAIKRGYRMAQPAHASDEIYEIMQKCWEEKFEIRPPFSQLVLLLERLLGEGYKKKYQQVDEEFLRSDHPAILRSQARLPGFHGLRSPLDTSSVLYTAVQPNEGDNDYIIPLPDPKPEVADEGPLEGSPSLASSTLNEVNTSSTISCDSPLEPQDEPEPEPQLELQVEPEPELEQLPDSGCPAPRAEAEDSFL", "conditions": "read-out: % Control; for remaining binding at 1 µM: 1000 nM", "text": "as §1, §2"}, "PIK3C2B": {"target": "T10, PIK3C2B (Homo sapiens, UniProt O00750)", "T10 construct": "purchased DiscoverX scanMAX", "conditions": "read-out: % Control; for remaining binding at 1 µM: 1000 nM", "text": "as §1, §2"}}, "data": [{"smiles": "Cc1cc(NC(=O)[C@H](O)c2cccc(F)c2)ccc1-c1cn(C)c2ncnc(N)c12", "note": "[Compound 11, (R)-N-(4-(4-amino-7-methyl-7H-pyrrolo[2,3-d]pyrimidin-5-yl)-3-methylphenyl)-2-(3-fluorophenyl)-2-hydroxy acetamide]", "values": [{"measurement": "remaining binding at 1 µM", "setting": "BLK", "result": 19, "unit": "%"}, {"measurement": "remaining binding at 1 µM", "setting": "CAMK4", "result": 32, "unit": "%"}, {"measurement": "remaining binding at 1 µM", "setting": "CDK11", "result": 1, "unit": "%"}, {"measurement": "remaining binding at 1 µM", "setting": "CDK8", "result": 2.5, "unit": "%"}, {"measurement": "% Control", "setting": "FLT3(ITD); 1000 nM", "result": 34, "unit": "%"}, {"measurement": "% Control", "setting": "FLT3(ITD,D835V); 1000 nM", "result": 89, "unit": "%"}, {"measurement": "remaining binding at 1 µM", "setting": "FLT3-autoinhibited", "result": 57, "unit": "%"}, {"measurement": "remaining binding at 1 µM", "setting": "GCN2(Kin.Dom.2,S808G)", "result": 84, "unit": "%"}, {"measurement": "remaining binding at 1 µM", "setting": "MAP3K2", "result": 14, "unit": "%"}, {"measurement": "remaining binding at 1 µM", "setting": "MKNK2", "result": 1.2, "unit": "%"}, {"measurement": "remaining binding at 1 µM", "setting": "PDGFRB", "result": 40, "unit": "%"}, {"measurement": "remaining binding at 1 µM", "setting": "PIK3C2B", "result": 27, "unit": "%"}]}, {"smiles": "Cc1nc(N)c2c(-c3ccc(NC(=O)[C@H](O)c4cccc(F)c4)cc3C)cn(C)c2n1", "note": "[Compound 24]", "values": [{"measurement": "remaining binding at 1 µM", "setting": "BLK", "result": 100, "unit": "%"}, {"measurement": "remaining binding at 1 µM", "setting": "CAMK4", "result": 100, "unit": "%"}, {"measurement": "remaining binding at 1 µM", "setting": "CDK11", "result": 89, "unit": "%"}, {"measurement": "remaining binding at 1 µM", "setting": "CDK8", "result": 98, "unit": "%"}, {"measurement": "% Control", "setting": "FLT3(ITD); 1000 nM", "result": 94, "unit": "%"}, {"measurement": "% Control", "setting": "FLT3(ITD,D835V); 1000 nM", "result": 100, "unit": "%"}, {"measurement": "remaining binding at 1 µM", "setting": "FLT3-autoinhibited", "result": 100, "unit": "%"}, {"measurement": "remaining binding at 1 µM", "setting": "GCN2(Kin.Dom.2,S808G)", "result": 100, "unit": "%"}, {"measurement": "remaining binding at 1 µM", "setting": "MAP3K2", "result": 100, "unit": "%"}, {"measurement": "remaining binding at 1 µM", "setting": "MKNK2", "result": 58, "unit": "%"}, {"measurement": "remaining binding at 1 µM", "setting": "PDGFRB", "result": 100, "unit": "%"}, {"measurement": "remaining binding at 1 µM", "setting": "PIK3C2B", "result": 100, "unit": "%"}]}, {"smiles": "Cc1nc(N)c2c(-c3ccc(NC(=O)[C@H](O)c4cccc(C(F)(F)F)c4)cc3C)cn(C)c2n1", "note": "[Compound 26]", "values": [{"measurement": "remaining binding at 0.1 µM", "setting": "BLK; 100 nM", "result": 100, "unit": "%"}, {"measurement": "remaining binding at 1 µM", "setting": "BLK", "result": 91, "unit": "%"}, {"measurement": "remaining binding at 0.1 µM", "setting": "CAMK4; 100 nM", "result": 100, "unit": "%"}, {"measurement": "remaining binding at 1 µM", "setting": "CAMK4", "result": 75, "unit": "%"}, {"measurement": "remaining binding at 0.1 µM", "setting": "CDK11; 100 nM", "result": 89, "unit": "%"}, {"measurement": "remaining binding at 1 µM", "setting": "CDK11", "result": 8.2, "unit": "%"}, {"measurement": "remaining binding at 0.1 µM", "setting": "CDK8; 100 nM", "result": 100, "unit": "%"}, {"measurement": "remaining binding at 1 µM", "setting": "CDK8", "result": 57, "unit": "%"}, {"measurement": "% Control", "setting": "FLT3(ITD); 100 nM", "result": 95, "unit": "%"}, {"measurement": "% Control", "setting": "FLT3(ITD); 1000 nM", "result": 9.4, "unit": "%"}, {"measurement": "% Control", "setting": "FLT3(ITD,D835V); 100 nM", "result": 100, "unit": "%"}, {"measurement": "% Control", "setting": "FLT3(ITD,D835V); 1000 nM", "result": 75, "unit": "%"}, {"measurement": "remaining binding at 0.1 µM", "setting": "FLT3-autoinhibited; 100 nM", "result": 100, "unit": "%"}, {"measurement": "remaining binding at 1 µM", "setting": "FLT3-autoinhibited", "result": 65, "unit": "%"}, {"measurement": "remaining binding at 0.1 µM", "setting": "GCN2(Kin.Dom.2,S808G); 100 nM", "result": 76, "unit": "%"}, {"measurement": "remaining binding at 1 µM", "setting": "GCN2(Kin.Dom.2,S808G)", "result": 94, "unit": "%"}, {"measurement": "remaining binding at 0.1 µM", "setting": "MAP3K2; 100 nM", "result": 100, "unit": "%"}, {"measurement": "remaining binding at 1 µM", "setting": "MAP3K2", "result": 89, "unit": "%"}, {"measurement": "remaining binding at 0.1 µM", "setting": "MKNK2; 100 nM", "result": 88, "unit": "%"}, {"measurement": "remaining binding at 1 µM", "setting": "MKNK2", "result": 3.9, "unit": "%"}, {"measurement": "remaining binding at 0.1 µM", "setting": "PDGFRB; 100 nM", "result": 100, "unit": "%"}, {"measurement": "remaining binding at 1 µM", "setting": "PDGFRB", "result": 11, "unit": "%"}, {"measurement": "remaining binding at 0.1 µM", "setting": "PIK3C2B; 100 nM", "result": 100, "unit": "%"}, {"measurement": "remaining binding at 1 µM", "setting": "PIK3C2B", "result": 78, "unit": "%"}]}]}
